Where two headings read alike, the source gives them in different places. *1 amine or outer side, *2 acyl side, *3 side chain or, on linkers, in order; H or OH if unused. Where a SMILES comes first, the peptide text is derived from it. Bridges are numbered along the chain shown (N, C = ends). [ ]: non-standard residue; d: D form. ξ: configuration not given here. Trp(1-CH2COOH) = N[C@@H](Cc1cn(CC(=O)O)c2ccccc12)C(=O)O; Trp(βS-Me) = C[C@@H](c1c[nH]c2ccccc12)[C@H](N)C(=O)O; Phe(3,4,5-F3) = N[C@@H](Cc1cc(F)c(F)c(F)c1)C(=O)O; Phe(3,4-F2) = N[C@@H](Cc1ccc(F)c(F)c1)C(=O)O; NMePhe(4-F) = CN[C@@H](Cc1ccc(F)cc1)C(=O)O; Phe(4-F) = N[C@@H](Cc1ccc(F)cc1)C(=O)O; d(cisHyp) = O=C(O)[C@H]1C[C@@H](O)CN1; Hyp = O=C(O)[C@@H]1C[C@@H](O)CN1; NMeF = CN[C@@H](Cc1ccccc1)C(=O)O; X1 = O=C([C@H]1COCCN1[*:1])[*:2]; dNMeF = CN[C@H](Cc1ccccc1)C(=O)O; NMeNle = CCCC[C@H](NC)C(=O)O; NMeV = CN[C@H](C(=O)O)C(C)C; Pip = O=C(O)[C@@H]1CCCCN1; dPip = O=C(O)[C@H]1CCCCN1; hSer = N[C@@H](CCO)C(=O)O; NMeA = CN[C@@H](C)C(=O)O; Orn = NCCC[C@H](N)C(=O)O; Dab = NCC[C@H](N)C(=O)O; Dap = NC[C@H](N)C(=O)O; ξC = NC(CS)C(=O)O
Biological target: T1, Human PD-L1/PD-1 (Homo sapiens, UniProt Q9NZQ7)
T1 construct: TVMV protease cleavage site (C); made in house; host or cells: HEK293T cells
T1 sequence (Q9NZQ7 with tags, fused parts or gaps): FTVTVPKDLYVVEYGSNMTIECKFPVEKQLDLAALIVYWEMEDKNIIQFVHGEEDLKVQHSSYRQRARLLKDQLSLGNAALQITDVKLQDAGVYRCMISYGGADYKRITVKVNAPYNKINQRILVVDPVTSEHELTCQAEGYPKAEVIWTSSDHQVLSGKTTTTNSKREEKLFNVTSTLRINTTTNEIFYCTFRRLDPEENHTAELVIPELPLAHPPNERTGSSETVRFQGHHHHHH
Assay: HTRF Human PD-L1/PD-1 binding assay (PD-1-Ig/PD-L1-His)
Conditions: PD-L1-His 10 nM, PD-1-Ig 20 nM
Method in brief: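 Competition of macrocyclic peptides for PD-1/PD-L1 binding measured by HTRF in dPBS containing 0.1% BSA and 0.05% Tween-20. Compound and PD-L1-His (10 nM final) incubated 15 min before PD-1-Ig (20 nM final) and a further 15 min.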

[1] = class symbol, read-out: HTRF Human PD-L1/PD-1 Binding Assay IC50 Range
[2] = read-out: HTRF Human PD-L1/PD-1 Binding Assay IC50

| Compound | IC50 [1] [nM] | IC50 [2] [nM] |
| --- | --- | --- |
| CCCC[C@H]1C(=O)N2C[C@H](O)C[C@@H]2C(=O)N[C@@H](CC(=O)O)C(=O)N[C@@H](C(C)C)C(=O)N(C)[C@@H](Cc2ccccc2)C(=O)N[C@@H](CCN)C(=O)N2C[C@H](O)C[C@@H]2C(=O)N[C@@H](Cc2c[nH]c3ccccc23)C(=O)N[C@@H](Cc2ccc(O)cc2)C(=O)N[C@@H](CCCN)C(=O)N[C@H](C(=O)NCC(N)=O)CSCC(=O)N[C@@H](Cc2ccc(F)c(F)c2)C(=O)N(C)[C@@H](Cc2ccccc2)C(=O)N1C [Example 9310] ({CH2CO}-[Phe(3,4-F2)][NMeF][NMeNle][d(cisHyp)]DV[NMeF][Dab][d(cisHyp)]WY[Orn]CG-NH2; thioether N-13) | 1 to 9.9 |  |
| CCCC[C@H]1C(=O)N(C)[C@@H](CCCC)C(=O)N[C@@H](CC(C)C)C(=O)N[C@H](C(=O)NCC(N)=O)CSCC(=O)N[C@@H](Cc2ccc(O)cc2)C(=O)N(C)[C@@H](C)C(=O)N[C@@H](CC(N)=O)C(=O)N2CCC[C@H]2C(=O)N[C@@H](CN)C(=O)N[C@@H](CC(C)C)C(=O)N2C[C@H](O)C[C@H]2C(=O)N[C@@H]([C@@H](C)c2c[nH]c3ccccc23)C(=O)N[C@@H](CO)C(=O)N[C@@H](Cc2c[nH]c3ccccc23)C(=O)N1C [Example 10530] ({CH2CO}-Y[NMeA]NP[Dap]L[Hyp][Trp(βS-Me)]SW[NMeNle][NMeNle]LCG-NH2; thioether N-14) |  | 15 |
| CCCC[C@H]1C(=O)N(C)[C@@H](CCCC)C(=O)N[C@@H](CCC(=O)O)C(=O)N[C@H](C(=O)NCC(N)=O)CSCC(=O)N[C@@H](Cc2ccc(O)cc2)C(=O)N(C)[C@@H](C)C(=O)N[C@@H](CC(N)=O)C(=O)N2CCC[C@H]2C(=O)N[C@@H](CO)C(=O)N[C@@H](CC(C)C)C(=O)N2C[C@H](O)C[C@H]2C(=O)N[C@@H](Cc2c[nH]c3ccccc23)C(=O)N[C@@H](CCN)C(=O)N[C@@H](Cc2c[nH]c3ccccc23)C(=O)N1C [Example 5247] ({CH2CO}-Y[NMeA]NPSL[Hyp]W[Dab]W[NMeNle][NMeNle]ECG-NH2; thioether N-14) | 1 to 9.9 |  |
| CCCC[C@H]1C(=O)N2CCC[C@@H]2C(=O)N[C@@H](CC(=O)O)C(=O)N[C@@H](C(C)C)C(=O)N(C)[C@@H](Cc2ccccc2)C(=O)N[C@@H](CCC(=O)O)C(=O)N2CCOC[C@@H]2C(=O)N[C@@H](Cc2c[nH]c3ccccc23)C(=O)N[C@@H](Cc2ccc(O)cc2)C(=O)N[C@@H](CN)C(=O)N[C@H](C(=O)NCC(N)=O)CSCC(=O)N[C@@H](Cc2cc(F)c(F)c(F)c2)C(=O)N(C)[C@@H](Cc2ccc(F)cc2)C(=O)N1C [Example 10606] ({CH2CO}-[Phe(3,4,5-F3)][NMePhe(4-F)][NMeNle][dP]DV[NMeF]E[X1]WY[Dap]CG-NH2; thioether N-13) | 1 to 9.9 |  |
| CCCC[C@H]1C(=O)N2C[C@H](O)C[C@@H]2C(=O)N[C@@H](CC(=O)O)C(=O)N[C@@H](C(C)C)C(=O)N(C)[C@H](Cc2ccccc2)C(=O)N[C@@H](CCC(=O)O)C(=O)N2C[C@H](O)C[C@@H]2C(=O)N[C@@H](Cc2c[nH]c3ccccc23)C(=O)N[C@@H](Cc2ccc(O)cc2)C(=O)N[C@@H](CCC(=O)O)C(=O)N[C@H](C(=O)NCC(N)=O)CSCC(=O)N[C@@H](Cc2ccc(F)c(F)c2)C(=O)N(C)[C@@H](Cc2ccccc2)C(=O)N1C [Example 9313] ({CH2CO}-[Phe(3,4-F2)][NMeF][NMeNle][d(cisHyp)]DV[dNMeF]E[d(cisHyp)]WYECG-NH2; thioether N-13) |  | 2.7 |
| CCCC[C@H]1C(=O)N2C[C@H](O)C[C@@H]2C(=O)N[C@@H](CC(=O)O)C(=O)N[C@@H](C(C)C)C(=O)N(C)[C@@H](Cc2ccccc2)C(=O)N[C@@H](Cc2ccc(O)cc2)C(=O)N2CCOC[C@@H]2C(=O)N[C@@H](Cc2c[nH]c3ccccc23)C(=O)N[C@@H](Cc2ccc(O)cc2)C(=O)N[C@@H](CCO)C(=O)N[C@H](C(=O)NCC(N)=O)CSCC(=O)N[C@@H](Cc2cc(F)c(F)c(F)c2)C(=O)N(C)[C@@H](Cc2ccccc2)C(=O)N1C [Example 10159] ({CH2CO}-[Phe(3,4,5-F3)][NMeF][NMeNle][d(cisHyp)]DV[NMeF]Y[X1]WY[hSer]CG-NH2; thioether N-13) | 1 to 9.9 |  |
| CCCC[C@H]1C(=O)N(C)[C@@H](CCCC)C(=O)N[C@@H](CCC(=O)O)C(=O)N[C@H](C(=O)NCC(N)=O)CSCC(=O)N[C@@H](Cc2ccc(O)cc2)C(=O)N(C)[C@@H](C)C(=O)N[C@@H](CC(=O)O)C(=O)N2CCC[C@H]2C(=O)N[C@@H](Cc2c[nH]cn2)C(=O)N[C@@H](CCC(N)=O)C(=O)N2C[C@H](O)C[C@H]2C(=O)N[C@@H](Cc2c[nH]c3ccccc23)C(=O)N[C@@H](CCC(=O)O)C(=O)N[C@@H](Cc2c[nH]c3ccccc23)C(=O)N1C [Example 5158] ({CH2CO}-Y[NMeA]DPHQ[Hyp]WEW[NMeNle][NMeNle]ECG-NH2; thioether N-14) | 10 to 99.9 |  |
| CCCC[C@H]1C(=O)N(C)[C@@H](CCCC)C(=O)N[C@@H](CN)C(=O)N[C@H](C(=O)NCC(N)=O)CSCC(=O)N[C@@H](Cc2ccc(O)cc2)C(=O)N(C)[C@@H](C)C(=O)N[C@@H](CC(=O)O)C(=O)N2CCC[C@H]2C(=O)N[C@@H](Cc2c[nH]cn2)C(=O)N[C@@H](CCC(=O)O)C(=O)N2C[C@H](O)C[C@H]2C(=O)N[C@@H](Cc2c[nH]c3ccccc23)C(=O)N[C@@H](CCN)C(=O)N[C@@H](Cc2cn(CC(=O)O)c3ccccc23)C(=O)N1C [Example 5220] | 100 to 990 |  |
| CCCC[C@H]1C(=O)N(C)[C@@H](CCCC)C(=O)N[C@@H](CN)C(=O)N[C@H](C(=O)NCC(N)=O)CSCC(=O)N[C@@H](Cc2ccc(O)cc2)C(=O)N(C)[C@@H](C)C(=O)N[C@@H](CC(N)=O)C(=O)N2CCC[C@H]2C(=O)N[C@@H](CO)C(=O)N[C@@H](Cc2cnc[nH]2)C(=O)N2C[C@H](O)C[C@H]2C(=O)N[C@@H](Cc2c[nH]c3ccccc23)C(=O)N[C@@H](CCN)C(=O)N[C@@H](Cc2cn(CC(=O)O)c3ccccc23)C(=O)N1C [Example 6247] ({CH2CO}-Y[NMeA]NPSH[Hyp]W[Dab][Trp(1-CH2COOH)][NMeNle][NMeNle][Dap]CG-NH2; thioether N-14) | 1 to 9.9 |  |
| CCCC[C@H]1C(=O)N(C)[C@@H](CCCC)C(=O)N[C@@H](CCCN)C(=O)N[C@H](C(=O)NCC(N)=O)CSCC(=O)N[C@@H](Cc2ccc(OC)cc2)C(=O)N(C)[C@@H](C)C(=O)N[C@@H](CC(=O)O)C(=O)N2CCC[C@H]2C(=O)N[C@@H](CN)C(=O)N[C@@H](CCCCN)C(=O)N2C[C@H](O)C[C@H]2C(=O)N[C@@H](Cc2c[nH]c3ccccc23)C(=O)N[C@@H](CCN)C(=O)N[C@@H](Cc2c[nH]c3ccccc23)C(=O)N1C [Example 7089] ({CH2CO}-Y(Me)[NMeA]DP[Dap]K[Hyp]W[Dab]W[NMeNle][NMeNle][Orn]CG-NH2; thioether N-14) | 1 to 9.9 |  |
| CCCC[C@H]1C(=O)N2C[C@H](O)C[C@@H]2C(=O)N[C@@H](CC(=O)O)C(=O)N[C@@H](C(C)C)C(=O)N(C)[C@@H](Cc2ccccc2)C(=O)N[C@@H](CC(N)=O)C(=O)N2C[C@H](O)C[C@@H]2C(=O)N[C@@H](Cc2c[nH]c3ccccc23)C(=O)N[C@@H](Cc2ccc(O)cc2)C(=O)N[C@@H](CC(C)C)C(=O)N[C@H](C(=O)NCC(N)=O)CSCC(=O)N[C@@H](Cc2cc(F)c(F)c(F)c2)C(=O)N(C)[C@@H](Cc2ccccc2)C(=O)N1C [Example 9361] ({CH2CO}-[Phe(3,4,5-F3)][NMeF][NMeNle][d(cisHyp)]DV[NMeF]N[d(cisHyp)]WYLCG-NH2; thioether N-13) | 1 to 9.9 |  |
| CCCC[C@H]1C(=O)N[C@@H](CC(N)=O)C(=O)N2CCC[C@H]2C(=O)N[C@@H](CO)C(=O)N[C@@H](CCO)C(=O)N2C[C@H](O)C[C@H]2C(=O)N[C@@H](Cc2c[nH]c3ccccc23)C(=O)N[C@@H](CN)C(=O)N[C@@H](Cc2c[nH]c3ccccc23)C(=O)N(C)[C@@H](C)C(=O)N(C)[C@@H](C)C(=O)N[C@@H](CCCNC(=N)N)C(=O)NC(C(=O)NCC(N)=O)CSCC(=O)N[C@@H](Cc2ccc(O)cc2)C(=O)N1C (stereo partly drawn) [Example 10199] ({CH2CO}-Y[NMeNle]NPS[hSer][Hyp]W[Dap]W[NMeA][NMeA]R[ξC]G-NH2; thioether N-14) | 1000 to 10000 |  |
| CCCC[C@H]1C(=O)N2CCC[C@@H]2C(=O)N[C@@H](CC(=O)O)C(=O)N[C@@H](C(C)C)C(=O)N(C)[C@@H](C(C)C)C(=O)N[C@@H](CCC(N)=O)C(=O)N2CCCC[C@@H]2C(=O)N[C@@H](Cc2c[nH]c3ccccc23)C(=O)N[C@@H](Cc2ccc(O)cc2)C(=O)N[C@@H](CCCN)C(=O)N[C@H](C(=O)NCC(N)=O)CSCC(=O)N[C@@H](Cc2ccc(F)cc2)C(=O)N(C)[C@@H](Cc2ccccc2)C(=O)N1C [Example 9248] ({CH2CO}-[Phe(4-F)][NMeF][NMeNle][dP]DV[NMeV]Q[dPip]WY[Orn]CG-NH2; thioether N-13) | 1000 to 10000 |  |
| CCCC[C@H]1C(=O)N(C)[C@@H](CCCC)C(=O)N[C@@H](CCCNC(=N)N)C(=O)NC(C(=O)NCC(N)=O)CSCC(=O)N[C@@H](Cc2ccc(O)cc2)C(=O)N(C)[C@@H](C)C(=O)N[C@@H](CC(N)=O)C(=O)N2CCC[C@H]2C(=O)N[C@@H](CC(N)=O)C(=O)N[C@@H](CC(N)=O)C(=O)N2CCC[C@H]2C(=O)N[C@@H](Cc2c[nH]c3ccccc23)C(=O)N[C@@H](CO)C(=O)N[C@@H](Cc2c[nH]c3ccccc23)C(=O)N1C (stereo partly drawn) [Example 10013] ({CH2CO}-Y[NMeA]NPNNPWSW[NMeNle][NMeNle]R[ξC]G-NH2; thioether N-14) |  | 63.4 |
| CCCC[C@H]1C(=O)N(C)[C@@H](CCCC)C(=O)N[C@@H](CN)C(=O)N[C@H](C(=O)NCC(N)=O)CSCC(=O)N[C@@H](Cc2ccc(O)cc2)C(=O)N2CCCC[C@H]2C(=O)N[C@@H](CC(N)=O)C(=O)N2CCC[C@H]2C(=O)N[C@@H](Cc2cnc[nH]2)C(=O)N[C@@H](CCC(N)=O)C(=O)N2C[C@H](O)C[C@H]2C(=O)N[C@@H](Cc2c[nH]c3ccccc23)C(=O)N[C@@H](CCN)C(=O)N[C@@H](Cc2cn(CC(=O)O)c3ccccc23)C(=O)N1C [Example 1298] ({CH2CO}-Y[Pip]NPHQ[Hyp]W[Dab][Trp(1-CH2COOH)][NMeNle][NMeNle][Dap]CG-NH2; thioether N-14) | 1 to 9.9 |  |
